Measured values published in patent US5420289A, “Substituted indole-, indene-, pyranoindole- and tetrahydrocarbazole-alkanoic acid derivatives as inhibitors of PLA2 and lipoxygenase” (American Home Products Corporation, priority 1993, dated 1995).
Blank lines part the entries; values can stand above or below the molecule they belong to.

What was measured:
[1] = test system: cyclooxygenase (PGE2 synthesis) in rat polymorphonuclear leukocytes (PMN); test: inhibition of PGE2 synthesis (cyclooxygenase) by rat glycogen-elicited PMN (Example 73); format: cell-based, rat (female Wistar); conditions: Leukocyte, * (negative) denotes a potentiation; for inhibition at 500 µM: at 0.5 mM; for inhibition at 10000 µM: at 10 mM, read-out: % Inhibition (PGE2 synthesis)
Method: (§1) Rat polymorphonuclear leukocytes (PMNs) are obtained from female Wistar rats (150-200 g) which receive an injection of 6% glycogen (10 ml i.p.). Rats are sacrificed 18-24 hours post injection by CO2 asphyxiation and the elicited cells are harvested by peritoneal lavage using physiological saline (0.9% NaC1). The exudate is centrifuged at 400 ×g for 10 minutes. The supernatant fluid is discarded and the cell pellet is resuspended to a concentration of 2.0×10^7 cells/mL in HBSS containing Ca^++ and Mg^++ and 10 mM L-cysteine.
(§2) To 1 mL aliquots of cell suspension, test drugs or vehicle are added, then preincubated at 37° C. for 10 minutes. A23187 (1 mM), [^3 H]-AA (3.0 mCi/mL) and unlabeled AA (1 mM) are then added and the samples are further incubated for 10 minutes. The reaction is terminated by centrifugation and pelleting cells. Supernatants are then analyzed by HPLC analysis on a 15 cm×4.6 mm ID supelcosil LC-18 (Supelco)(3M) column, using a two solvent system at a flow rate of 1.4 mL total flow as follows:
In this assay, the procedure of Example 72 is carried out as described. However, in order to determine cyclooxygenase activity, the samples are cochromatographed with authentic reference [^3 H]-PGE2.
The results be calculated as in Example 72 and presented below: […]

[2] = target: T1, human synovial fluid PLA2 (Homo sapiens, UniProt P14555); test: in vitro isolated phospholipase A2 assay, human synovial fluid PLA2 (Example 74); format: biochemical; set-up: inhibition / % Inhibition, HSF (human synovial fluid): dose or concentration left out as unconfirmed; conditions: for inhibition: read-out: % Inhibition, HSF (human synovial fluid); for IC50: Table III, read-out: IC50 HSF (human synovial fluid)
T1 sequence (P14555 21-144): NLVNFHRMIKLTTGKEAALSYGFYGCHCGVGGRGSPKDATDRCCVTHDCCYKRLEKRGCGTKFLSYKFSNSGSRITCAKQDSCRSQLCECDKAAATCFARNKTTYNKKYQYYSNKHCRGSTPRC
Method in brief: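 Human synovial fluid PLA2 (purified) acts on ³H-arachidonate-labelled E. coli substrate, 10 minutes at 37° C with shaking; stopped with tetrahydrofuran. Released arachidonic acid is isolated on NH2 columns, eluted with tetrahydrofuran/2% acetic acid and quantitated by β-counting against a total-counts sample.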

human platelet PLA2 = target: T2, human platelet PLA2 (Homo sapiens, UniProt P14555); test: in vitro isolated phospholipase A2 assay, human platelet PLA2 (Example 74); format: biochemical; set-up: dose or concentration left out as unconfirmed; conditions: read-out: % Inhibition, HP (human platelet)
T2 construct: Semi-purified human platelet acid extract PLA2; from tissue; host or cells: human platelets (semi-purified acid extract)
T2 sequence (P14555 21-144): T1 sequence (P14555 21-144)
Method: The compounds of the invention are tested in an in vitro isolated phospholipase A2 assay to determine the ability of the test compounds to inhibit the release of arachidonic acid from an arachidonic acid-containing substrate by the action of phospholipase A2 enzyme from human and non-human sources.
This assay is carried out as follows:
Into a 15 mL polypropylene tube are added the following:
^6 Two human PLA2 enzymes are used:
a) Semi-purified human platelet acid extract PLA2 (in 10 mM
sodium acetate buffer, pH 4.5). Remove protein precipitate by
centrifugation at about 2200 rpm for 10 minutes.
Incubate the 100mL reaction mixture for 10 minutes at 37° C. in a shaking water bath. The reaction is terminated by the addition of 2 mL tetrahydrofuran, followed by vortexlag. NH2 columns (100 mg/mL--Analytichem International) are conditioned with 0.5 mL tetrahydrofuran followed by 0.5 mL tetrahydrofuran/water (2 mL:0.1 mL, v/v).
The sample is loaded onto the columns and slowly drawn through them. The hydrolyzed arachidonic acid retained in the columns is eluted therefrom with 1 mL tetrahydrofuran/glacial acetic acid (2%). The arachidonic acid is transferred to scintillation vials and quantitated by b-counting analysis. A "total counts" sample is prepared by pipetting […] ^3 H-arachidonate E. coli directly into a scintillation vial to which is added 1 mL tetrahydrofuran. 10 mL aquasol (scintillation cocktail) is added to all samples. [formula]

[3] = test system: synthesis of LTB4 by rat glycogen-elicited polymorphonuclear leukocytes (PMN); test: inhibition of LTB4 synthesis by rat glycogen-elicited PMN (Example 72); format: cell-based, rat (female Wistar); conditions: Leukocyte; for inhibition at 10000 µM: at 10 mM, negative number denotes potentiation
Excerpt: This is especially true with respect to 5,12-diHETE, which is also denoted as LTB4 lsee Ford-Hitchinson, J. Roy. Soc. Med., 74, 831 (1981)]. Compounds which inhibit the PLA2 -mediated release of arachidonic acid thereby effectively prevent the oxidation of arachidonic acid to the various leukotriene products via the lipoxygenase cascade. Accordingly, the specificity of action of PLA2 inhibitors can be determined by the activity of test compounds in this assay, which measures the ability of compounds to inhibit the synthesis of LTB4 by rat glycogen-elicited polymorphonuclear leukocytes (PMN) in the presence of exogenous substrate.
The assay is carded out as follows:
as §1, §2
Gradient: (system is equilibrated with Solvent A)
Percent solvent changes are accomplished in a linear fashion.
Injections: […] of each supernatant is injected directly onto column and ^3 H arachidonic acid metabolites are monitored using an on-line radioactivity detector (Ramona, IN/U S, Fairfield, NJ).
Standards: 10^4 -2.0×10^4 dpm of eicosanoids of interest are injected in […] EtOH cocktail.
Co-chromatography with standard [^3 H] leukotriene B4 (LTB4) in medium of stimulated PMN exposed to drug is compared to that found in medium of stimulated cells exposed to no drug, generating percent inhibition.
Results are expressed as percent inhibition at a given compound dose or as an IC50 value.

[4] = test system: paw edema induced by PLA2 from the diamond back cotton mouth snake (A. piscivorus piscivorus); test: in vivo PLA2 murine paw edema assay (Example 75); set-up: species or system mouse (male CD-1); conditions: for ED50 at +10 min.: p.o., at +10 min after PLA2, standard drugs
Method: The ability of the compounds of the invention to inhibit paw edema induced by the exogenous administration of PLA2 is measured in the in vivo PLA2 murine paw edema assay.
The assay is carried out as follows:
Non-fasted, male CD-1 mice (8 weeks old; 31-36 grams) are placed in plastic boxes in groups of six. The right hind paw volume is measured using mercury plethysmography (zero time). Compounds are dosed orally (0.5 mL of 0.5% Tween-80) 1 or 3 hours prior to PLA2 injection or intravenously (0.2 mL in 0.3% dimethylsulfoxide/saline) 3 minutes prior to PLA2 injection. A solution of purified PLA2, from the diamond back cotton mouth snake (A. piscivorus piscivorus) is prepared in saline at a concentration of 6 mg/mL. Fifty (50) uL (0.3 mg) of this PLA2 solution is injected subcutaneously into the right hind paw with a plastic 1 mL plastic syringe (27 gauge, "1" needle). Paw volume of the injected paw is measured again at 10 minutes, 30 minutes and 60 minutes after PLA2 injection. Animals are euthanized with CO2 at the completion of the study.
The paw edema is calculated by subtracting the zero time volume from the volume recorded at each time period. Mean paw edema for each treatment group is then calculated and expressed as (mL±S.E.). Drug effects are expressed as a percent change from control (vehicle) values. Statistical significance is determined by a one-way analysis of variance with LSD comparison to control (p<0.05). ED50 's are determined using repression analysis.

[5] = test system: paw edema induced by PLA2 from the diamond back cotton mouth snake (A. piscivorus piscivorus); test: in vivo PLA2 murine paw edema assay (Example 75); set-up: species or system mouse (male CD-1)

inhibition [2]: 48%
inhibition (human platelet PLA2): 58%
Molecule: CC1=C(CC(=O)O)c2cc(F)ccc2C1=Cc1ccc(OCc2ccc3ccccc3n2)cc1 [Example 4, 5-Fluoro-2-methyl-1-[[4-(2-quinolinylmethoxy)phenyl]methylene]-1H-indene-3-acetic acid]
inhibition at 500 µM [1]: 7%
inhibition at 500 µM ([3]; at 0.5 mM): 92%

Molecule: COc1cccc2c1cc([N+](=O)[O-])c1c(C(=O)O)cc3c(c12)OCO3 [Aristolochic Acid, reference compound]
ED50 at +10 min. [4]: Not Active

Molecule: CSc1ccc(/C=C2/C(C)=C(CC(=O)O)c3cc(OCc4ccc5ccccc5n4)ccc32)cc1 [Example 2, 2-Methyl-3-[[4-(methylthio)phenyl]methylene]-6-(2-quinolinylmethoxy)-3H-indene-1-acetic acid]
inhibition at 10000 µM [1]: 92%
IC50 [2]: 3.6 µM
% Change in Edema ([4]; 10 mg/kg i.v., 10 min): -39%
% Change in Edema ([4]; 10 mg/kg i.v., 30 min): -43%
% Change in Edema ([4]; 10 mg/kg i.v., 60 min): -37%
% Change in Edema ([4]; 100 mg/kg p.o., 10 min): -6%
% Change in Edema ([4]; 100 mg/kg p.o., 30 min): -22%
% Change in Edema ([4]; 100 mg/kg p.o., 60 min): +18%
inhibition at 10000 µM [3]: 96%

Molecule: CCCCCCOc1ccc2c(c1)c(CC(=O)O)c(C)n2Cc1ccc(Cl)cc1 [Example 19, 1-[(4-Chlorophenyl)methyl]-5-(hexyloxy)-2-methyl-1H-indole-3-acetic acid]
% Change in Edema ([5]; 30 mg/kg i.p., 30 min): -30%
% Change in Edema ([5]; 60 mg/kg i.p., 30 min): -34%
inhibition [2]: 45%
inhibition (human platelet PLA2): 71%

Molecule: CC1=C(CC(=O)O)c2cc(OCc3ccc4ccccc4n3)ccc2/C1=C\c1ccc(Cl)cc1 [Example 1, 3-[(4-Chlorophenyl)methylene]-[2-methyl-6-(2-quinolinylmethoxy)]-3H-indene-1-acetic acid]
inhibition at 10000 µM [1]: 81%
IC50 [2]: 9.7 µM
% Change in Edema ([4]; 10 mg/kg i.v., 10 min): -6%
% Change in Edema ([4]; 10 mg/kg i.v., 30 min): -9%
% Change in Edema ([4]; 10 mg/kg i.v., 60 min): -40%
% Change in Edema ([4]; 100 mg/kg p.o., 10 min): +4%
% Change in Edema ([4]; 100 mg/kg p.o., 30 min): -27%
% Change in Edema ([4]; 100 mg/kg p.o., 60 min): -6%
inhibition at 10000 µM [3]: 96%

Molecule: COc1ccc2c(c1)c(CC(=O)O)c(C)n2C(=O)c1ccc(Cl)cc1 [indomethacin, reference compound]
% Change in Edema ([5]; 10 mg/kg p.o., 10 min): -32%
% Change in Edema ([5]; 10 mg/kg p.o., 30 min): -31%
% Change in Edema ([5]; 10 mg/kg p.o., 60 min): -42%
IC50 [2]: 145 µM

Molecule: COc1ccc2cc([C@H](C)C(=O)O)ccc2c1 [Naproxen, reference compound]
ED50 at +10 min. [4]: 18 mg/kg

Molecule: Luffarrellolide [reference compound]
ED50 at +10 min. [4]: Not Active

Molecule: C[C@@H]1C[C@H]2[C@@H]3CCC4=CC(=O)C=C[C@]4(C)[C@@]3(F)[C@@H](O)C[C@]2(C)[C@@]1(O)C(=O)CO [Dexamethasone]
ED50 at +10 min. ([5]; p.o. 3 hr, at +10 min after PLA2): 10 mg/kg

inhibition [2]: 3.8%
inhibition (human platelet PLA2): 90%
Molecule: CC1=C(CC(=O)O)c2cc(OCc3ccc4ccccc4n3)ccc2C1=Cc1ccc(OCc2ccc3ccccc3n2)cc1 [Example 41, 2-Methyl-5-(2-quinolinylmethoxy)-1-[[4-(2-quinolinylmethoxy)phenyl]methylene]-1H-indene-3-acetic acid]
inhibition at 500 µM [1]: -21%
inhibition at 10000 µM [3]: 100%
